This is an account of results in US4558052A, “10-Bromosandwicine, 10-bromoisosandwicine, pharmaceutical compositions thereof, and methods of treating heart rhythm disorders with them” (Kali-Chemie Pharma GmbH, priority 1979, dated 1985).

For data set [1] the following is noted: words, known from literature; cited from earlier work.
Data set [2] deals with male NMRI-mice. As to the kind of experiment: Acute toxicity LD50 i.p. and p.o. in mice. It is filed as in vivo. As to conditions: probit analysis. The protocol:
A. Determination of acute toxicity LD50 i.p. and p.o. in mice.
The acute toxicity of the compounds is determined in male NMRI-mice (body weight range 18-22 g) after i.p. or p.o. administration. The LD50 values are calculated by means of electronic data processing through a probit analysis.

The subject of data set [3] is cardiac extra-systoles induced by aconitine. As to the kind of experiment: Antiarrhythmic activity against cardiac extra-systoles induced by aconitine in rats (Raschack). Type of data set: in vivo. As to conditions: i.v., equitoxic dose about 5% of the i.p. LD50 in mice, aconitine 5 μg/kg/min i.v., vs control group. The protocol:
C. Determination of antiarrhythmic activity against cardiac extra-systoles induced by aconitine in rats.
The protective effects of the compounds against extra-systoles (ES) caused by aconitine infusion in rats are determined according to the method of Raschack (Arzneimittelforsch. 25 (1975) 639-641).
Male Wistar rats having a body weight of 320-400 g are anesthetized by i.p. application of 1.25 g/kg urethane. The animals are placed on their backs and their electrocardiogram is registered every 30 seconds during the test. The animals are given an i.v. aconitine infusion at an infusion rate of 5 μg/kg/min of aconitine with an infusion volume of 0.1 ml/minute. 5 Minutes prior to starting the aconitine infusion the animals are given a solution of the test compound in an amount of 2 ml/kg bodyweight of isotonic NaCl solution by i.v. infusion over a period of about 2.5 minutes. A control group of animals is given only the vehicle solution. The infusion time until occurence of extra-systoles is determined.
Antiarrhythmically active test compounds lead to a retardation of the onset of aconitine-induced cardiac extra-systoles in the treated animals as compared with the group of control animals. The degree of prolongation of aconitine-infusion time and thus of increase of administered amount of aconitine up to which the animals are protected against the aconitine induced extra-systoles is an indication of the degree of antiarrhythmic activity of the test compounds.
Equitoxic doses of the test compounds are used namely doses which correspond to about 5% of the i.p. LD50 of the compound in mice. The % increase in aconitine infusion time (that is % increase of administered amount of aconitine) until onset of the extra-systoles in the treated animals as compared with the control group is determined.

For data set [4], the system named is male NMRI-mice. Kind of data set: Minimum symptom dose at which any undesirable side effects are detected (Campbell and Richter). The conditions noted are these: dose causing changes in behaviour in 2 out of 3 mice. Type of data set: in vivo. Here is the method: B. Determination of minimum symptom dose at which any undesirable side effects are detected.
The minimum symptom dose is determined in male NMRI-mice (body weight range 18-22 g) according to the procedure of Campbell and Richter (see D. E. S. Campbell and W. Richter. Acta Pharmacol. Toxicol. 25 (1967) pp. 345-363). The minimum symptom dose is defined as that dose in μmol/kg which after i.p. administration causes changes in behaviour in 2 out of 3 mice. The minimum symptom dose is a measure for evaluation of undesirable side effects.

Data set [5] is described as follows: Antiarrhythmic activity in a standard pharmacological in vivo test procedure. As to conditions: words.

“Also recorded” adds a separate entry of the source. Where a name gives a salt, the structure may show the parent alone.

For the molecule `CCC1C2CC3C4N(C)c5ccc(Br)cc5C45CC(C2C5O)N3C1O` (stereo not drawn) [10-bromoajmaline], the “cardiac / antiarrhythmic activities” value in data set [1] is recorded as “cardiac activities”.

For the molecule `CCC1C2CC3C4N(C)c5ccc(Br)cc5C45CC(C2C5O)N3C1O` (stereo not drawn) [10-bromoisosandwicine hydrogen tartrate, 10-bromoisosandwicinium hydrogentartrate], in the data set on male NMRI-mice [2], the “Toxicity LD50 i.p.” value was 25 µmol/kg and the “Toxicity LD50 p.o.” value turned out to be 65 µmol/kg. In addition, the “Antiarrhythmic activity, ES-inhibiting effect: % prolongation of aconitine infusion time until onset of extra-systoles” value in data set [3] was found to be 25%. In addition, the “Minimum symptom dose i.p.” value in the data set on male NMRI-mice [4] amounted to 3 µmol/kg.

On to `CCC1C2CC3C4N(C)c5ccc(Br)cc5C45CC(C2C5O)N3C1O` (stereo not drawn) [10-bromosandwicine hydrogen tartrate, 10-bromosandwicine hydrogentartrate], for which, in the data set on male NMRI-mice [2], the “Toxicity LD50 i.p.” value worked out at 307 µmol/kg and the “Toxicity LD50 p.o.” value was determined as 2200 µmol/kg. Besides, the “Antiarrhythmic activity, ES-inhibiting effect: % prolongation of aconitine infusion time until onset of extra-systoles” value in data set [3] is reported as 25%. Moreover, the “Minimum symptom dose i.p.” value with male NMRI-mice [4] is 92 µmol/kg.

With `CC[C@H]1[C@@H]2C[C@H]3[C@@H]4N(C)c5ccccc5[C@]45C[C@@H]([C@H]2[C@H]5O)N3[C@@H]1O` [Ajmaline], the “cardiac / antiarrhythmic activities” value in data set [1] is “cardiac activities including antiarrhythmic activities”.

For the molecule `CCC1C2CC3C4N(C)c5ccccc5C45CC(C2C5O)N3C1O` (stereo not drawn) [Isosandwicine hydrogen fumarate], in the data set with male NMRI-mice [2], the “Toxicity LD50 i.p.” value is on record as ~ 56 μmol/kg and the “Toxicity LD50 p.o.” value amounted to 471 µmol/kg. Besides, the “ES-inhibiting effect (result in words)” value in data set [3] is reported as “not significant”. For the same molecule, the “Minimum symptom dose i.p.” value in the data set on male NMRI-mice [4] was determined as 10 µmol/kg.

As to `CCC1C2CC3C4N(C)c5ccccc5C45CC(C2C5O)N3C1O` (stereo not drawn) [Sandwicine hydrogen tartrate], in the data set with male NMRI-mice [2], the “Toxicity LD50 i.p.” value is ~ 325 μmol/kg and the “Toxicity LD50 p.o.” value stood at 1530 µmol/kg. The “ES-inhibiting effect (result in words)” value in data set [3] was “not significant”. Besides, in the data set with male NMRI-mice [4], the “Minimum symptom dose i.p.” value came to 58 µmol/kg.

`CC[C@@H]1[C@H]2C[C@H]3[C@@H]4N(C)c5ccccc5[C@]45C[C@@H](C2[C@H]5O)N3[C@H]1O` (stereo partly drawn) [isoajmaline]: the “cardiac / antiarrhythmic activities” value in data set [1] is “cardiac activities including antiarrhythmic activities”.

For the molecule `CCC1C2CC3C4N(C)c5ccccc5C45CC(C2C5O)N3C1O` (stereo not drawn) [isosandwicine], the antiarrhythmic activity result in data set [5] is given as “no significant antiarrhythmic effects; also recorded: no significant antiarrhythmic activities”.

With `CCC1C2CC3C4N(C)c5ccccc5C45CC(C2C5O)N3C1O` (stereo not drawn) [sandwicine, Sandwicine], in data set [5], the antiarrhythmic activity result is “no significant antiarrhythmic effects; also recorded: no significant antiarrhythmic activities”.
